In US8119750B2, “Explosion taming surfactants for the production of perfluoropolymers” (3M Innovative Properties Company, priority 2006, dated 2012):
Marks after values point to notes of the source that are not given here.

assay: Determination of bio-accumulation: urinary clearance pharmacokinetic study in rats; conditions: male Sprague Dawley rats, 73 micro Moles per kg oral gavage, urine by fluorine NMR, exponential least squares curve fitting
Description: The perfluorinated and partially fluorinated carboxylates were evaluated for urinary clearance using a pharmacokinetic study in rats. The goal was to measure the total amount of parent compound eliminated via urinary output and estimate the rate of elimination.
The study utilized male Sprague Dawley rats, 6 to 8 weeks of age, and approximately 200 to 250 g body weight at study onset. The test compounds of table 2 were administered at a dose of 73 micro Moles per kg body weight in rats (N=3 animals per tested compound). All test compounds were prepared in sterile deionized water and given to rats via oral gavage. After test compounds administration, the rats were housed individually in metabolism cages for urine collection: 0 to 6 hours, 6 to 24 hours, 24 to 48 hours and 72 to 96 hours. Animals were observed throughout the study for clinical signs of toxicity. Gross necropsy was performed at the termination of each study (96 hours post-dose) with sera and liver samples being retained from each animal.
The concentration of the parent compound or metabolites thereof were quantitatively measured via fluorine NMR on each urine sample for each animal at each time point based on internally added standards.

Compound	T ½ (h) (renal half-life)
N.O=C(O)C(F)(F)OC(F)(F)C(F)(F)C(F)(F)OC(F)(F)F [Compound C-2, CF3—O—(CF2)3—O—CF2—COONH4, reference compound]	10
N.O=C(O)C(F)(F)C(F)(F)C(F)(F)OC(F)C(F)(F)F (stereo not drawn) [Compound 5, CF3—CFH—O—(CF2)3—COONH4]	8
N.O=C(O)C(F)(F)C(F)(F)C(F)(F)C(F)(F)C(F)(F)OC(F)C(F)(F)F (stereo not drawn) [Compound 4, CF3—CFH—O—(CF2)5—COONH4]	24
N.O=C(O)C(F)(F)C(F)(F)C(F)(F)C(F)(F)C(F)(F)C(F)(F)C(F)(F)F [Compound C-1, C7F15COONH4, reference compound]	~550
N.O=C(O)C(F)(F)C(F)OC(F)(F)C(F)(F)C(F)(F)OC(F)(F)F (stereo not drawn) [Compound 1, CF3—O—CF2—CF2—CF2—O—CHF—CF2—COONH4]	12
N.O=C(O)C(F)(F)C(F)OC(F)(F)C(F)(F)C(F)(F)F (stereo not drawn) [Compound 3, C3F7—O—CFH—CF2COONH4]	11
N.O=C(O)C(F)(F)C(F)(F)OC(F)(F)C(F)(F)C(F)(F)C(F)(F)F [Compound C-3, C4F9—O—CF2—CF2—COONH4, reference compound]	31
N.O=C(O)C(F)OC(F)(F)C(F)(F)C(F)(F)OC(F)(F)F (stereo not drawn) [Compound 2, CF3—O—CF2—CF2—CF2—O—CHF—COONH4]	11

same assay, conditions: male Sprague Dawley rats, 73 micro Moles per kg oral gavage; no parent compound observed in the urine

Compound	T ½ (h) (renal half-life), based on elimination of the major metabolite C3F7—O—CHFCOO−
N.O=C(O)COC(F)(F)C(F)OC(F)(F)C(F)(F)C(F)(F)F (stereo not drawn) [Compound 6, C3F7—O—CFH—CF2—O—CH2—COONH4]	13* h
